ChEMBL document CHEMBL1140768, “Constituents of Brazilian red propolis and their preferential cytotoxic activity against human pancreatic PANC-1 cancer cell line in nutrient-deprived condition” (2008)

System: PANC-1
Test: Cytotoxicity against human PANC1 cells in nutrient deprived medium after 24 hrs
Type: functional

Structure (SMILES) | CD100 [µM]
COc1cc(O)ccc1[C@H]1COc2cc(O)ccc2C1 | >100
O=C1c2ccc(O)cc2O[C@H](c2ccccc2)[C@H]1O | >100
O=C(c1ccc(O)cc1O)[C@@H](O)Cc1ccc(O)cc1 | >100
C=C[C@@H](c1ccccc1)c1cc(O)c(OC)cc1OC | >100
COc1ccc([C@H]2COc3cc(O)ccc3C2)c(O)c1 | >100
COc1ccc([C@H]2COc3cc(O)ccc3C2=O)c(O)c1 | >100
COc1ccc2c(c1O)O[C@@H]1c3ccc(O)cc3OC[C@H]21 | 50
COc1ccc2c(C)c(-c3ccc(O)cc3O)oc2c1 | 50
COc1ccc2c(c1)O[C@H]1c3ccc(O)c(O)c3OC[C@@H]21 | 25
COc1cc(O)ccc1C(=O)/C=C/c1ccc(O)cc1 | >100
COc1ccc([C@H]2COc3cc(O)ccc3C2=O)c(OC)c1O | >100
O=C1c2ccc(O)cc2OC1(O)Cc1ccc(O)cc1 (centres undefined) | >100
COc1cc2c(cc1O)O[C@H](c1ccccc1)[C@@H](O)C2=O | >100
COc1ccc([C@H]2COc3cc(OC)ccc3C2)c(O)c1 | 25
CCO[C@@]12COc3cc(O)ccc3[C@@H]1Oc1cc(OC)ccc12 | >100
O=C1C[C@@H](c2ccccc2)Oc2cc(O)c(O)c(O)c21 | >100
COc1cc2c(cc1O)O[C@H](c1ccccc1)CC2=O | 50
O=C1C[C@@H](c2ccccc2)Oc2cc(O)ccc21 | >100
COc1ccc(-c2coc3cc(O)cc(O)c3c2=O)c(O)c1 | >100
COc1ccc([C@H]2COc3cc(O)cc(O)c3C2=O)c(O)c1 | >100
COc1ccc2c(c1)O[C@H]1c3ccc(O)c(OC)c3OC[C@@H]21 | >100
COc1ccc2c(c1)O[C@@H]1c3ccc(O)cc3OC[C@H]21 | 50

Structure (SMILES) | CD100 [µM]
O=C(/C=C/c1ccccc1)c1ccc(O)cc1O [2',4'-DIHYDROXYCHALCONE] | >100
COc1ccc([C@H]2OC[C@H]3[C@@H]2CO[C@@H]3c2ccc(OC)c(OC)c2)cc1OC [(+)-EUDESMIN] | >100
COc1cc([C@@H]2OC[C@@H]3[C@H]2CO[C@H]3c2ccc(O)c(OC)c2)ccc1O [(+)-PINORESINOL] | >100
COc1c(O)cc2oc(-c3ccccc3)c(O)c(=O)c2c1O [ALNUSIN] | >100
COc1c(O)cc2c(c1O)C(=O)[C@H](O)[C@@H](c1ccccc1)O2 [ALNUSTINOL] | >100
COc1cc(C[C@H]2C(=O)OC[C@@H]2Cc2ccc(OC)c(OC)c2)ccc1O [ARCTIGENIN] | 1
COc1ccc(-c2coc3cc(O)cc(O)c3c2=O)cc1 [BIOCHANIN] | >100
COc1ccc(-c2coc3cc(O)ccc3c2=O)cc1O [CALYCOSIN] | >100
O=c1c(-c2ccc(O)cc2)coc2cc(O)ccc12 [DAIDZEIN] | >100
COc1c(O)cc2c(c1O)C(=O)C[C@@H](c1ccccc1)O2 [DIHYDROOROXYLIN A] | >100
O=c1[nH]cc(F)c(=O)[nH]1 [FLUOROURACIL] | >100
COc1ccc(-c2coc3cc(O)ccc3c2=O)cc1 [FORMONONETIN] | >100
O=C1c2ccc(O)cc2O[C@H](c2ccc(O)cc2)[C@H]1O [GARBANZOL] | >100
O=C(/C=C/c1ccc(O)cc1)c1ccc(O)cc1O [ISOLIQUIRITIGENIN] | >100
O=C1C[C@@H](c2ccc(O)cc2)Oc2cc(O)ccc21 [LIQUIRTIGENIN] | >100
COc1ccc([C@H]2COc3cc(O)ccc3C2)c(OC)c1O [MUCRONULATOL] | >100
O=C1C[C@@H](c2ccc(O)cc2)Oc2cc(O)cc(O)c21 [NARINGENIN] | >100
CC(=O)O[C@H]1C(=O)[C@@]2(C)[C@H]([C@H](OC(=O)c3ccccc3)[C@]3(O)C[C@H](OC(=O)[C@H](O)[C@@H](NC(=O)c4ccccc4)c4ccccc4)C(C)=C1C3(C)C)[C@]1(OC(C)=O)CO[C@@H]1C[C@@H]2O [PACLITAXEL] | >100
COc1ccc(-c2coc3cc(O)cc(O)c3c2=O)cc1O [PRATENSEIN] | >100
COc1cc2c(cc1OC)[C@@H]1COc3cc(O)ccc3[C@@H]1O2 [SECUNDIFLOROL I] | >100
COc1cc([C@H]2OC[C@H]3[C@@H]2CO[C@@H]3c2cc(OC)c(O)c(OC)c2)cc(OC)c1O [SYRINGARESINOL] | >100
COc1ccc(-c2coc3cc(O)ccc3c2=O)c(O)c1 [XENOGNOSIN B] | >100
